Data on 1 compound can be found in US20120082658A1, “Methods for the Treatment of Allergic Diseases” (VentiRx Pharmaceuticals, Inc., priority 2010, published 2012).

Assay type in all cases: cell-based
For experiment [1], the target named is T1, TLR7 (Homo sapiens, UniProt Q9NYK1).
T1 construct: expressed in transfected cells; host or cells: HEK293
T1 sequence (Q9NYK1 27-1049): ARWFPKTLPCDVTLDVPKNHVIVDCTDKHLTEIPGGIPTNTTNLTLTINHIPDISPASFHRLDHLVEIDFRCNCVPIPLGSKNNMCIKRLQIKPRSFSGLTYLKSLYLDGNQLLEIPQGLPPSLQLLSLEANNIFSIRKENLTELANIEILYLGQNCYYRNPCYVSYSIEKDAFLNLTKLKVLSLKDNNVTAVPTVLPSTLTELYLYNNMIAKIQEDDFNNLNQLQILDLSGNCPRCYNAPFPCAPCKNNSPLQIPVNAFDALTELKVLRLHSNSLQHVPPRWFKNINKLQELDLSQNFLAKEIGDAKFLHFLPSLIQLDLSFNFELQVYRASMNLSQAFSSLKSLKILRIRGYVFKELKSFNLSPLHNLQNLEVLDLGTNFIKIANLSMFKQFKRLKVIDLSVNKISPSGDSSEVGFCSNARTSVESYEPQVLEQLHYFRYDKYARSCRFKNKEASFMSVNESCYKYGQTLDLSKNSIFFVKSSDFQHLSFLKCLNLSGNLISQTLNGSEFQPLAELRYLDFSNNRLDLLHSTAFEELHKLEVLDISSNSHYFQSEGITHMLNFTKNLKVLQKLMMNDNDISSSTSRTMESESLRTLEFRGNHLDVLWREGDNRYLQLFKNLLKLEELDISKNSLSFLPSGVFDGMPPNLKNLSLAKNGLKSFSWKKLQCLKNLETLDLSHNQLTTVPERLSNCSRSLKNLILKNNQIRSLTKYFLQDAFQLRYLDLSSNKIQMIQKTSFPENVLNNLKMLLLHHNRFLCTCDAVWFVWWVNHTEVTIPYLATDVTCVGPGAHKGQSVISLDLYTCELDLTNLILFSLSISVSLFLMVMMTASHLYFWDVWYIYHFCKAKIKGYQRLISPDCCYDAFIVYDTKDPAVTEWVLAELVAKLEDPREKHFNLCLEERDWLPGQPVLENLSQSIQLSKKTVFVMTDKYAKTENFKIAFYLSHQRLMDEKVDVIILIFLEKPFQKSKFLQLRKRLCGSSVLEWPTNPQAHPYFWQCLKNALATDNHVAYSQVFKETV
Description: HEK293 cells transfected with human TLR7, NF-κB driven reporter. As to conditions: read-out: EC50, activation of TLR7. On the procedure:
(§1) FIG. 8 is two graphs depicting the potency and selectivity of VTX-378 for TLR8. The half-maximal effective concentration (EC50) for VTX-378 activation of TLR8 and TLR7 was assessed in peripheral blood mononuclear cells (PBMCs) by the amount of secreted TNFα (A) and by the activity of NF-κB (B) from 15 healthy donors and also in HEK293 cells transfected with various human TLRs.
(§2) Preclinical studies were performed with VTX-378, the active pharmaceutical ingredient in VTX-1463. The specificity of VTX-378 for human TLR8 relative to other TLRs was assessed in transfected Human Embryonic Kidney 293 (HEK293) cells engineered to express individual TLRs (2-9) via transfection, and assessed using an NF-κB driven reporter system. […] The pharmacologic effects of VTX-378 were characterized in vitro using isolated human peripheral blood mononuclear cells (PBMCs).

Experiment [2] has as its target T2, TLR5 (Homo sapiens, UniProt O60602).
T2 construct: expressed in transfected cells; host or cells: HEK293
The experiment is described as follows: HEK293 cells transfected with human TLR5, NF-κB driven reporter. As to conditions: concentration up to 25 uM. As to the method: as §1, §2

The target of experiment [3] is T3, TLR2 (Homo sapiens, UniProt O60603).
T3 construct: expressed in transfected cells; host or cells: HEK293
T3 sequence (O60603 21-784): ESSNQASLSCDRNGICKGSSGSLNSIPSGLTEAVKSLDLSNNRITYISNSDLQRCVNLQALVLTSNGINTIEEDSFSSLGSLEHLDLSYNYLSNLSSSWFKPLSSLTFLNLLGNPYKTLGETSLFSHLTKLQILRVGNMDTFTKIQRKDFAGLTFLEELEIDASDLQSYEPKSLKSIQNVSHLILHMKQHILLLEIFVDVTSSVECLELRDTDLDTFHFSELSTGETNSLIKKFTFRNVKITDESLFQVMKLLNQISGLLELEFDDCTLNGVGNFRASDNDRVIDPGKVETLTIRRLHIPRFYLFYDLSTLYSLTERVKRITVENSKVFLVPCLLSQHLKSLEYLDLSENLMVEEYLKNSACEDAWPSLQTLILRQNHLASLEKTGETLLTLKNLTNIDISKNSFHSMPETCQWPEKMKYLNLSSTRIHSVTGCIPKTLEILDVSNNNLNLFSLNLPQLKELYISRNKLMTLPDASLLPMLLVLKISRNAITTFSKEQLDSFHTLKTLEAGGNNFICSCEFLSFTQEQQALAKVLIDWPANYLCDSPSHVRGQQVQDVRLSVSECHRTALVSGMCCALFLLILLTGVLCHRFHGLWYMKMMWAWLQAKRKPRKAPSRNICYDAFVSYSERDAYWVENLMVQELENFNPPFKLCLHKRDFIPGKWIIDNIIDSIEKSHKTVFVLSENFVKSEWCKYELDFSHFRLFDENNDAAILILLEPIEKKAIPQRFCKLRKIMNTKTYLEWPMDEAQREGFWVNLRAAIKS
Description: HEK293 cells transfected with human TLR2, NF-κB driven reporter. As to conditions: concentration up to 25 uM. On the procedure: as §1, §2

Experiment [4] has as its target T4, human TLR8 (Homo sapiens, UniProt Q9NR97).
T4 construct: expressed in transfected cells; host or cells: HEK293
T4 sequence (Q9NR97 27-1041): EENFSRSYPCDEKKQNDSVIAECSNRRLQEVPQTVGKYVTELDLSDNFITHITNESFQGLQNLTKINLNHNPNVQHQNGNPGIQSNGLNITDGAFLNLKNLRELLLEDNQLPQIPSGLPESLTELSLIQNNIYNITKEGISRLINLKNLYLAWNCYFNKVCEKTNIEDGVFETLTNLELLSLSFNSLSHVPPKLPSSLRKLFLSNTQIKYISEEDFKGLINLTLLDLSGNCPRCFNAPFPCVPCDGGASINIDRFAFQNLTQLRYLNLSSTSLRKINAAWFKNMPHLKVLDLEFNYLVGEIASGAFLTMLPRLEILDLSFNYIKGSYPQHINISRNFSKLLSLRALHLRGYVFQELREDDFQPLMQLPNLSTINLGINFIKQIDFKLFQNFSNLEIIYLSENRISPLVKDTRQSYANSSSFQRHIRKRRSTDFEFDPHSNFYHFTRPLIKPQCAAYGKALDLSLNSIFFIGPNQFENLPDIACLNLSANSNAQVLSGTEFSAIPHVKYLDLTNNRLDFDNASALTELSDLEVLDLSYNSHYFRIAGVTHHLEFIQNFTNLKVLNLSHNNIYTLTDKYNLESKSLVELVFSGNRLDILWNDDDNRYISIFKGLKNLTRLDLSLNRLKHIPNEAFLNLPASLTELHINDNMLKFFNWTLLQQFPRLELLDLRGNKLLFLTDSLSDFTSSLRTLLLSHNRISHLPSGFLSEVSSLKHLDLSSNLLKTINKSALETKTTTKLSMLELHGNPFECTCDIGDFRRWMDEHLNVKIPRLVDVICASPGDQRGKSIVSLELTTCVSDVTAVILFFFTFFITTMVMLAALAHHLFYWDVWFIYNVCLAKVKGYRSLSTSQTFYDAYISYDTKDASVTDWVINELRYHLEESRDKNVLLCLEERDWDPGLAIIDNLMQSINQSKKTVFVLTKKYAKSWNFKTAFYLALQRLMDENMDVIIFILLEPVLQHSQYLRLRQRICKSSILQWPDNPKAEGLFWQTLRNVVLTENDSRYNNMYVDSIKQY
The experiment is described as follows: HEK293 cells transfected with human TLR8, NF-κB driven reporter. As to conditions: read-out: half maximal effective concentration (EC50), activation of TLR8. On the procedure: as §1, §2

T2 sequence (O60602 21-858): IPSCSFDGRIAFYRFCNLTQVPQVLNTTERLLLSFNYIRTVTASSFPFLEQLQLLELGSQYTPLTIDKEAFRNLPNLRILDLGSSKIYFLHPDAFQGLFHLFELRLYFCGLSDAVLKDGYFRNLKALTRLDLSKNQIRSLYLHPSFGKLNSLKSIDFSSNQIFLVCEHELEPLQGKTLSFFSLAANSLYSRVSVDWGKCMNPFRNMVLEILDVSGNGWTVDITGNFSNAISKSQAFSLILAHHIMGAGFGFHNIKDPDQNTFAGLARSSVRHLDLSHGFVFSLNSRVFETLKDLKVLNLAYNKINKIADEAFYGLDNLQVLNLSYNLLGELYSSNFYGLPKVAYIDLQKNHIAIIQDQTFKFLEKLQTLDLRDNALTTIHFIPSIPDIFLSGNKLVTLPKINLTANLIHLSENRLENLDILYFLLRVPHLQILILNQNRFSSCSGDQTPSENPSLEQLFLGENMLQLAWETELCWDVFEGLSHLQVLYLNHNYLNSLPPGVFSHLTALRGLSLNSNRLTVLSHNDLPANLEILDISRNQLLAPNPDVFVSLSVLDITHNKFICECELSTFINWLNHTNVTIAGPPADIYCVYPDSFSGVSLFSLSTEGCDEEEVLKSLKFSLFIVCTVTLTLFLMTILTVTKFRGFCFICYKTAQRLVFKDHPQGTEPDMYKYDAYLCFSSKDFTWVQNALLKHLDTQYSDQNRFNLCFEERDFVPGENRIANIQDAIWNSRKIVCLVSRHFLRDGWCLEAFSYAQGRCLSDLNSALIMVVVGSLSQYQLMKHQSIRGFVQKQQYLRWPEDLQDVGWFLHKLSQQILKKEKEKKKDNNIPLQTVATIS

As for `CCCN(CCC)C(=O)C1=Cc2ccc(-c3ccc(C(=O)N4CCCC4)cc3)cc2N=C(N)C1` [VTX-378], the EC50 is around 2000 nM in experiment [1] and around 100 nM in experiment [4]. Further, the “activity on TLR5” value in experiment [2] was “no detectable activity”. In addition, the “activity on TLR2” value in experiment [3] was “no detectable activity”.
